In assay [1] the target is T1, Lysine-specific histone demethylase 1A (Homo sapiens, UniProt O60341).
For assay [2], the system named is MGC-803. Kind of assay: Induction of mitochondrial membrane potential loss in human MGC803 cells assessed as FL2 red fluorescence level at 7.5 uM incubated for 48 hrs by JC1 staining based flow cytometry (reference value: 5.47%). It is filed as functional.
The next assay concerns the target Histone deacetylase 5 (Homo sapiens, UniProt Q9UQL6). Kind of assay: Inhibition of C-terminal His-tagged human HDAC5 (656-1122 residues) expressed in baculovirus expression system using Ac-peptide substrate incubated for 15 mins by fluorescence based assay. Particulars: read-out: IC50.
Assay [3] has as its system MGC-803. Kind of assay: Induction of apoptosis in human MGC803 cells assessed as necrotic cells level at 7.5 uM incubated for 48 hrs by Annexin-V-FITC/propidium iodide staining based flow cytometry (reference value: 0.242%). It is filed as functional.
In assay [4] the test system is MGC-803. The assay can be described thus: Induction of apoptosis in human MGC803 cells assessed as late apoptotic cells level at 5 uM incubated for 24 hrs by Annexin-V-FITC/propidium iodide staining based flow cytometry (reference value: 0.447%). The assay is classed as functional.
The subject of assay [5] is MGC-803. Kind of assay: Induction of apoptosis in human MGC803 cells assessed as late apoptotic cells level at 5 uM incubated for 48 hrs by Annexin-V-FITC/propidium iodide staining based flow cytometry (reference value: 0.121%). The assay is classed as functional.
Assay [6] deals with T1, Lysine-specific histone demethylase 1A. Kind of assay: Inhibition of LSD1 in human MGC803 cells assessed as increase in cellular H3K4me3 levels at 1 uM incubated for 24 hrs by Western blot. The assay is classed as cell-based.
Assay [7] has as its target Histone deacetylase (Homo sapiens) (UniProt Q13547+O15379+Q9UBN7+Q92769+Q9UQL6+Q8WUI4+Q9BY41+Q96DB2+P56524+Q9UKV0+Q969S8). Kind of assay: Inhibition of HDAC in human MGC803 cells assessed as increase in cellular histone H3 acetylation levels incubated for 24 hrs by Western blot. It is filed as cell-based.
Assay [8] relates to MGC-803. The assay can be described thus: Induction of apoptosis in human MGC803 cells assessed as necrotic cells level at 2.5 uM incubated for 24 hrs by Annexin-V-FITC/propidium iodide staining based flow cytometry (reference value: 0.596%). The assay is classed as functional.
The target in assay [9] is T1, Lysine-specific histone demethylase 1A. The assay can be described thus: Inhibition of LSD1 in human MGC803 cells assessed as increase in cellular H3K4me3 levels at 2 uM incubated for 24 hrs by Western blot. It is filed as cell-based.
The test system of assay [10] is MGC-803. The assay can be described thus: Induction of mitochondrial membrane potential loss in human MGC803 cells assessed as FL2 red fluorescence level at 2.5 uM incubated for 48 hrs by JC1 staining based flow cytometry (reference value: 5.47%). The assay is classed as functional.
The test system of assay [11] is MGC-803. Kind of assay: Induction of apoptosis in human MGC803 cells assessed as late apoptotic cells level at 2.5 uM incubated for 48 hrs by Annexin-V-FITC/propidium iodide staining based flow cytometry (reference value: 0.121%). It is filed as functional.
Assay [12] relates to MGC-803. Kind of assay: Induction of mitochondrial membrane potential loss in human MGC803 cells assessed as FL2 red fluorescence level at 5 uM incubated for 48 hrs by JC1 staining based flow cytometry (reference value: 5.47%). The assay is classed as functional.
In assay [13] the test system is MGC-803. The assay can be described thus: Induction of apoptosis in human MGC803 cells assessed as viable cells level at 2.5 uM incubated for 48 hrs by Annexin-V-FITC/propidium iodide staining based flow cytometry (reference value: 92.3%). The assay is classed as functional.
The subject of assay [14] is MGC-803. Kind of assay: Induction of apoptosis in human MGC803 cells assessed as early apoptotic cells level at 2.5 uM incubated for 48 hrs by Annexin-V-FITC/propidium iodide staining based flow cytometry (reference value: 7.35%). It is filed as functional.
The next assay concerns SW-620. The assay can be described thus: cells. It is filed as functional, cell-based. The note with it: Homo sapiens, SW-620, 72 h.
Assay [15] addresses T1, Lysine-specific histone demethylase 1A. The assay can be described thus: Inhibition of LSD1 in human MGC803 cells assessed as increase in cellular H3K4me2 levels incubated for 24 hrs by Western blot. It is filed as cell-based.
For assay [16], the system named is MGC-803. The assay can be described thus: Induction of apoptosis in human MGC803 cells assessed as late apoptotic cells level at 2.5 uM incubated for 24 hrs by Annexin-V-FITC/propidium iodide staining based flow cytometry (reference value: 0.447%). The assay is classed as functional.
The next assay deals with MCF7. Kind of assay: cells. The assay is classed as functional, cell-based. The note with it: Homo sapiens, MCF7, 72 h.
In assay [17] the test system is MGC-803. The assay can be described thus: Induction of apoptosis in human MGC803 cells assessed as viable cells level at 7.5 uM incubated for 24 hrs by Annexin-V-FITC/propidium iodide staining based flow cytometry (reference value: 94.6%). The assay is classed as functional.
Assay [18] concerns MGC-803. Kind of assay: Induction of apoptosis in human MGC803 cells assessed as viable cells level at 5 uM incubated for 48 hrs by Annexin-V-FITC/propidium iodide staining based flow cytometry (reference value: 92.3%). The assay is classed as functional.

Calls of active or inactive are those of the source. The calls are words filed in the database; no cut-off is given here.

Histone deacetylase 5, sequence (Q9UQL6 whole entry, the tested form may be a part): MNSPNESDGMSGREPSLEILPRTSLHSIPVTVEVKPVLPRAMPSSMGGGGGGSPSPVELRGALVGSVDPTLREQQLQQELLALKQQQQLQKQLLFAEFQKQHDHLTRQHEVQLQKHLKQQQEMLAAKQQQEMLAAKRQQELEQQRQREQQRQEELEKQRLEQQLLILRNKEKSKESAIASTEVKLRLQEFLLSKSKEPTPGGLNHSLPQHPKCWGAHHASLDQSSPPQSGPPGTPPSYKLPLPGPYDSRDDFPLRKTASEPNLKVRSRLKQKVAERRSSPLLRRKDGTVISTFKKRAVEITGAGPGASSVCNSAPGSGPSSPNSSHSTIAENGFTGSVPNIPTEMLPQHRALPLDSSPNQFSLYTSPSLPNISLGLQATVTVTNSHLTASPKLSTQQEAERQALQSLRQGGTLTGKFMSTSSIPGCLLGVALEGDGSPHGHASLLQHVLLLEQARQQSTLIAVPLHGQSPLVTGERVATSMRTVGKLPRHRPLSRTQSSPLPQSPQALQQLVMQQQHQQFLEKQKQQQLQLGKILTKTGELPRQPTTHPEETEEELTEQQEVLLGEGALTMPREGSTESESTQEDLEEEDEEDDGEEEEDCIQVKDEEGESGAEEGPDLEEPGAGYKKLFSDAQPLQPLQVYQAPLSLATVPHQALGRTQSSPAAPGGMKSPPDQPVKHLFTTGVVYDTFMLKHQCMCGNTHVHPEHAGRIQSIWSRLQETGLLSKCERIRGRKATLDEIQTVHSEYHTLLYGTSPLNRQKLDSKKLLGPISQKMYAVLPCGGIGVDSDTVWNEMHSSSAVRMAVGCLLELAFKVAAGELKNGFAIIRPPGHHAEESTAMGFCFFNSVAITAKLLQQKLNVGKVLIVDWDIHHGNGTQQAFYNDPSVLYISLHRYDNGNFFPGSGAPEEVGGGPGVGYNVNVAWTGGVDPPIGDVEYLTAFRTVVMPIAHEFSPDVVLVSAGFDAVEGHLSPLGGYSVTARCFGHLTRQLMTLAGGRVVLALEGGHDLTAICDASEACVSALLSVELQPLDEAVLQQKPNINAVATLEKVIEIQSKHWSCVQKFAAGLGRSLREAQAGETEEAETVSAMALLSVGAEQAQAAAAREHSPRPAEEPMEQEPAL
Description for MCF7: Antiproliferative activity against human MCF7 cells incubated for 72 hrs by MTT assay
Description for SW-620: Antiproliferative activity against human SW620 cells incubated for 72 hrs by MTT assay

As to `O=C(CCCCCCNC(=O)c1ccc(CNC2(c3ccccc3)CC2)cc1)NO`, the Ratio IC50 in [1] was determined as 25. For the same compound, the Activity in the assay with MGC-803 [2] was 94%; in the assay with MGC-803 [3] it was 1.61%; in the assay on MGC-803 [4], 11%; in the assay on MGC-803 [5], 43.9%; in the assay on MGC-803 [8], 1.22%; in the assay on MGC-803 [10], 46.6%. Besides, the Activity in the assay with MGC-803 [11] amounted to 35.2%; with MGC-803 [12], 83.5%; in the assay on MGC-803 [13], 25.4%; in the assay with MGC-803 [14] it was 37.2%; in the assay with MGC-803 [16], 4.27%; with MGC-803 [17], 54.7%. The Activity with MGC-803 [18] turned out to be 11.9%. Besides, the IC50 on Histone deacetylase 5 was 16.8 µM; in the assay on SW-620, 2.35 µM; in the assay with MCF7, 4.28 µM. The inhibition result in assay [6] and in assay [9] was “inactive” in each case. Besides, the inhibition result in assay [7] and in assay [15] was “Dose-dependent effect” throughout.

Values taken from ChEMBL document CHEMBL4130471, “Design and synthesis of tranylcypromine derivatives as novel LSD1/HDACs dual inhibitors for cancer treatment” (Eur J Med Chem, 2017).
